Assay results reported in patent publication US11845770B2, “Ascaroside derivatives and methods of use” (California Institute of Technology, priority 2019, dated 2023).
“Also recorded” adds a separate entry of the source.

Experiments:
[1] = system: THP1 human macrophage cells; experiment: Stimulation of THP-1 cells, IL-6 at 6 or 36 hours post stimulation; assay type: cell-based; details: THP1-derived macrophages, IFNγ + LPS, 0.1 to 500 μM, FIG. 9
Experimental: Human immortalized monocytic THP-1 cells were maintained in phenol red free RPMI 1640 medium containing 10% (v/v) fetal bovine serum (FBS), 2 mM L-glutamine, penicillin (100 units/mL), streptomycin (100 μg/mL), amphotericin B (2.5 μg/mL), and 50 μM beta-mercaptoethanol (BME) at 37° C. with 5% (v/v) CO2. THP-1 cells were seeded in 1 mL of THP-1 medium (cell culture medium containing 10% (v/v) FBS, 2 mM L-glutamine, penicillin (100 units/mL), streptomycin (100 μg/mL), amphotericin B ([…]), and 50 μM BME)/well at a density of 1×10^6 cells/mL in six-well plates. Cells were differentiated by adding 10, 50, or 100 nM phorbol 12-myristate 13-acetate (PMA) to each well before incubating cells for 5.5 h at 37° C. with 5% (v/v) CO2. Without removing the media, different concentrations (either 0, 0.1, 1.0, 10, 100, 200, or 500 μM) of the compound were added to each well. Cells were stimulated, within 30 min by adding 20 ng/mL interferon gamma (IFNγ) and 100 ng/mL lipopolysaccharide (LPS) to each well. Following stimulation, the THP-1 cells were incubated for 6 or 36 hours at 37° C. with 5% (v/v) CO2. Supernatant was collected and stored at −80° C. until use.
IL-6 released from supernatants collected at 6 or 36 hours post stimulation with IFNγ and LPS were measured using the AlphaLISA Human IL-6 detection kit.

[2] = system: THP-1 derived macrophages; experiment: Stimulation of THP-1 cells, cytokine release 72 h post stimulation; assay type: cell-based, human; details: 72 h post stimulation (IFN-γ + LPS); 0.1, 1, 10, 100 or 200 μM vs 0 μM
Experimental: Human immortalized monocytic THP-1 cells were maintained in phenol red free RPMI 1640 medium containing 10% (v/v) fetal bovine serum (FBS), 2 mM L-glutamine, penicillin (100 units/mL), streptomycin (100 μg/mL), amphotericin B (2.5 μg/mL), and 50 μM beta-mercaptoethanol (BME) at 37° C. with 5% (v/v) CO2. THP-1 cells were seeded in 1 mL of THP-1 medium (cell culture medium containing 10% (v/v) FBS, 2 mM L-glutamine, penicillin (100 units/mL), streptomycin (100 μg/mL), amphotericin B (2.5 μg/mL), and 50 μM BME)/well at a density of 1 million cells/mL in six-well plates. Cells were differentiated by adding 100 nM phorbol 12-myristate 13-acetate (PMA) to each well before incubating cells for 5.5 h at 37° C. with 5% (v/v) CO2. Without removing the media, different concentrations (either 0, 0.1, 1, 10, 100, or 200 μM) of 1 and 10 were added to each well. Cells were stimulated, within 30 min by adding 20 ng/mL interferon gamma (IFN-γ) and 100 ng/mL lipopolysaccharide (LPS) to each well. Following stimulation, the THP-1 cells were incubated for 72 h at 37° C. with 5% (v/v) CO2. Supernatant was collected and stored at −80° C. until use.
IL-6 release from supernatant collected at 72 hours post stimulation was measured using the AlphaLISA Human IL-6 detection kit.
TNFα release from supernatant collected at 72 hours post stimulation was measured using the AlphaLISA Human TNFα detection kit.

[3] = system: A549 human alveolar epithelial cells; experiment: Stimulation of A549 human lung carcinoma cell line, cytokine expression; assay type: cell-based; details: A549, 10 ng/mL TNFα + 10 ng/mL IL-1β, 48 hours
Experimental: A549 cells are cultured in DMEM supplemented with 2 mM glutamine and 10% Fetal Bovine Serum (FBS) at 37° C. with 5% (v/v) CO2. Cells are grown to approximately 80% confluency before being passage and media is changed every 2-3 days. A549 cells are seeded in 24-well plates at a density of 0.5×10^6 cells per well at 37° C. with 5% (v/v) CO2. The cells are pre-treated with the compounds (0, 1.0, 10, 100 μM) for 1 hour prior to addition of 10 ng/mL of TNFα and 10 ng/mL of IL-1β for 48 hours at 37° C. with 5% (v/v) CO2. Supernatants were collected and stored at −80° C. until quantitative detection assays are performed.
Human Eotaxin, Monocyte Chemoattractant Protein-1 (MCP-1), Interleukin-6 (IL-6), Interleukin-25 (IL-25), Interleukin-33 (IL-33), Thymic stromal lymphopoietin (TSLP), and Granulocyte-Macrophage Colony-Stimulating Factor (GM-CSF) released from supernatants collected post stimulation were measured using Human Magnetic Luminex® Assay Kit. Human CCL5/RANTES was measured using an Enzyme-Linked Immunosorbent Assay (ELISA)-based analysis.

[4] = system: EPC2 human esophageal keratinocytes; experiment: Stimulation of EPC2-hTERT human esophageal keratinocytes with Poly(I:C); assay type: cell-based; details: 24 hours, increasing concentrations; for percent inhibition relative to Stimulated of TSLP expression: FIG. 19A; for percent inhibition relative to Stimulated of IL-6 expression: FIG. 19B; for percent inhibition relative to Stimulated of MCP-1 expression: FIG. 19C
Experimental: EPC2-hTERT (EPC2) cells were maintained in supplemented keratinocyte serum-free medium (KSFM) with 0.09 mM calcium chloride containing epidermal growth factor (5 ng/mL), bovine pituitary extract ([…]), penicillin (100 units/mL), and streptomycin ([…]) (ThermoFisher #17005042) at 37° C. with 5% (v/v) CO2. EPC2 cells were seeded in 12-well plates at 0.55×10^6 cells per well in supplemented KSFM at 37° C. with 5% (v/v) CO2 and after 6 hours the old media is removed and changed with fresh media. After overnight incubation, the old media is changed to supplemented KSFM containing 1.8 mM calcium chloride and incubated for 72 hours at 37° C. with 5% (v/v) CO2. After the old media is removed and fresh supplemented KSFM containing 1.8 mM calcium chloride is added, the cells are pre-treated with different concentrations of compounds (0, 1, 10, 100, 500, 1000 μM) for 1 hour prior to stimulation. To stimulate the cells, Poly (I:C) (Tocris #4287) is added to the wells at […] concentration without removing the media and incubated for 24 hours at 37° C. with 5% (v/v) CO2. Supernatants are collected in Eppendorf tubes, centrifuged in a microfuge at maximum speed for 10 minutes at 4° C., and the centrifuged supernatants stored at −80° C. until quantitative detection assays are performed. Human Interleukin-6 (IL-6), Monocyte Chemoattractant Protein-1 (MCP-1), and Thymic stromal lymphopoietin (TSLP) released from supernatants collected post stimulation were measured using the AlphaLISA detection kit for human IL-6, MCP-1, and TSLP, respectively.

human naïve T cells = experiment: Stimulation of blood derived naïve T cells with Der p1 (house dust mite) antigen; assay type: cell-based; details: at 100 μM; human T cells, Der p1 antigen; FIG. 15
Experimental: Naïve T cells from peripheral blood samples were collected and processed using MACSxpress® Whole Blood Pan T Cell Isolation Kit (Miltenyi Biotec), according to the manufacturer's protocol. Isolated naïve T cells were cultured in RPMI medium supplemented with 5% Fetal Bovine Serum (FBS) at 37° C. with 5% (v/v) CO2. T cells were seeded in 24 well plates at a density of 0.5×10^6 cells per well. The cells were pre-treated with the compounds (0, 0.1, 1.0, 10, 100 μM) for 1 hour prior to stimulation. Cells were stimulated with […] of Dermatophagoides pteronyssinus (Der p1) antigen. After 48 hours, fresh […] of Der p1 was added and continued incubating for a further 72 hours at 37° C. with 5% (v/v) CO2. Overall T cells were stimulated with […] of Der p1 antigen for 5 days before supernatants were collected and stored at −80° C. until quantitative detection assays are performed.
Human Interleukin-4 (IL-4), Interleukin-5 (IL-5), Interleukin-6 (IL-6), Interleukin-8 (IL-8), Interleukin-13 ([…]), Interleukin-23 (IL-23), and Interferon gamma (IFNγ) released from supernatants collected post stimulation were measured using Human Magnetic Luminex® Assay Kit. Human Transforming Growth Factor beta (TGFβ) was measured using an Enzyme-Linked Immunosorbent Assay (ELISA)-based analysis.

SMILES	percent inhibition relative to Control of IL-6 levels secreted [1]	fold change of IL-6 levels secreted by the THP1-derived macrophages [2]	fold change of TNFα levels secreted by the THP1-derived macrophages [2]	percent inhibition relative to Stimulated of GM-CSF expression ([3]; 1.0, 10, 100 μM, FIG. 16, 17)	percent inhibition relative to Stimulated of IL-25 expression ([3]; 1.0, 10, 100 μM, FIG. 16, 17)	percent inhibition relative to Stimulated of IL-33 expression ([3]; 1.0, 10, 100 μM, FIG. 16, 17)	percent inhibition relative to Stimulated of MCP-1 expression ([3]; 1.0, 10, 100 μM, FIG. 16, 17)	percent inhibition relative to Stimulated of Eotaxin expression ([3]; FIG. 18)	percent inhibition relative to Stimulated of IL-6 expression ([3]; FIG. 18)	percent inhibition relative to Stimulated of RANTES expression ([3]; FIG. 18)	percent inhibition relative to Stimulated of TSLP expression ([3]; FIG. 18)	percent inhibition relative to Stimulated of TSLP expression [4]	percent inhibition relative to Stimulated of IL-6 expression [4]	percent inhibition relative to Stimulated of MCP-1 expression [4]	percent inhibition relative to Stimulated of IL-6 expression (human naïve T cells)	percent inhibition relative to Stimulated of IL-8 expression (human naïve T cells)	percent inhibition relative to Stimulated of TNFα expression (human naïve T cells)
C[C@H](CCCCC(=O)OC(C)(C)C)O[C@@H]1O[C@@H](C)[C@H](O)C[C@H]1O [Compound 10, tert-butyl (R)-6-(((2R,3R,5R,6S)-3,5-dihydroxy-6-methyltetrahydro-2H-pyran-2-yl)oxy)heptanoate]	inhibited IL-6 expression in statistically significant, dose-dependent manner	reduced these levels significantly; also recorded: even more significantly reduced	reduced these levels significantly	overall statistically significant, dose-dependent inhibition	overall statistically significant, dose-dependent inhibition	overall statistically significant, dose-dependent inhibition	overall statistically significant, dose-dependent inhibition	robust, statistically significant inhibition	robust, statistically significant inhibition	robust, statistically significant inhibition	robust, statistically significant inhibition	statistically significant inhibition; also recorded: robust blocking	inhibited IL-6 expression in statistically significant, dose-dependent manner	inhibited MCP-1 expression in statistically significant, dose-dependent manner	–	–	–
C[C@H](CC/C=C/C(=O)OCC1CCCCC1)O[C@@H]1O[C@@H](C)[C@H](O)C[C@H]1O [Compound 3, cyclohexylmethyl (2E,6R)-6-{[(2R,3R,5R,6S)-3,5-dihydroxy-6-methyloxan-2-yl]oxy}hept-2-enoate]	inhibited IL-6 expression in statistically significant, dose-dependent manner	–	–	–	–	–	–	–	–	–	–	statistically significant inhibition; also recorded: completely inhibited	inhibited IL-6 expression in statistically significant, dose-dependent manner	inhibited MCP-1 expression in statistically significant, dose-dependent manner	statistically significant inhibition	statistically significant inhibition	statistically significant inhibition
